Data from publication PMC5988656, “Phase I studies of AZD1208, a proviral integration Moloney virus kinase inhibitor in solid and haematological cancers” (British Journal of Cancer, 2018).

Tested on: patients with recurrent or refractory AML
Assay: AML dose-escalation study: safety and tolerability (AEs, DLTs)
Type: in vivo, human
Description: Conducted at three centres in the USA and one in Canada. Dose escalation followed a conventional 3 + 3 design. […] In the first cohort, dosing between the first and subsequent patients was staggered with a 7-day interval. Dose-escalation decisions were based on the safety and tolerability data from ≥3 evaluable patients (or six if one of the first three patients experienced a dose-limiting toxicity [DLT]).
AZD1208 could be escalated by up to 100% in subsequent cohorts until one DLT was observed, after which succeeding doses were escalated by up to 50%.
In the case of a DLT, the cohort was expanded to six patients. If a DLT occurred in ≥2 patients within a cohort, the dose was determined to be a non-tolerated dose (NTD) and dose escalation was stopped.
Grade 3 or 4 toxicities not attributable to the disease or disease-related processes under investigation, and occurring before the end of Cycle 1, were considered DLTs.
The NTD was identified as the dose at which ≥2 DLTs occurred in a given cohort.

For N[C@@H]1CCCN(c2c(/C=C3\SC(=O)NC3=O)cccc2-c2ccccc2)C1 [AZD1208], the “Abdominal pain (all-grade AE)” value (120 mg, n = 4) was 1 (25.0) n (%), the “Asthenia (all-grade AE)” value (120 mg, n = 4) was 1 (25.0) n (%) and the “Chills (all-grade AE)” value (120 mg, n = 4) was 0 n (%). The “Cough (all-grade AE)” value (120 mg, n = 4) was 0 n (%), the “Decreased appetite (all-grade AE)” value (120 mg, n = 4) was 0 n (%) and the “Dehydration (all-grade AE)” value (120 mg, n = 4) was 0 n (%). For the same molecule, the “Diarrhoea (all-grade AE)” value (120 mg, n = 4) was 1 (25.0) n (%), the “Dyspnoea (all-grade AE)” value (120 mg, n = 4) was 0 n (%) and the “Fatigue (all-grade AE)” value (120 mg, n = 4) was 1 (25.0) n (%). For the same molecule, the “Febrile neutropenia (all-grade AE)” value (120 mg, n = 4) was 3 (75.0) n (%), the “Headache (all-grade AE)” value (120 mg, n = 4) was 0 n (%) and the “Hyperglycaemia (all-grade AE)” value (120 mg, n = 4) was 0 n (%). For the same molecule, the “Hypocalcaemia (all-grade AE)” value (120 mg, n = 4) was 1 (25.0) n (%), the “Hypokalaemia (all-grade AE)” value (120 mg, n = 4) was 0 n (%) and the “Hypomagnesaemia (all-grade AE)” value (120 mg, n = 4) was 1 (25.0) n (%). The “Hypophosphataemia (all-grade AE)” value (120 mg, n = 4) was 1 (25.0) n (%), the “Hypotension (all-grade AE)” value (120 mg, n = 4) was 1 (25.0) n (%) and the “Maculopapular rash (all-grade AE)” value (120 mg, n = 4) was 0 n (%). The “Nausea (all-grade AE)” value (120 mg, n = 4) was 3 (75.0) n (%), the “Oedema peripheral (all-grade AE)” value (120 mg, n = 4) was 1 (25.0) n (%) and the “Patients with any AE (all-grade AE)” value (120 mg, n = 4) was 3 (75.0) n (%). The “Pneumonia (all-grade AE)” value (120 mg, n = 4) was 1 (25.0) n (%), the “Pyrexia (all-grade AE)” value (120 mg, n = 4) was 0 n (%) and the “Rash (all-grade AE)” value (120 mg, n = 4) was 0 n (%). The “Renal failure acute (all-grade AE)” value (120 mg, n = 4) was 0 n (%), the “Stomatitis (all-grade AE)” value (120 mg, n = 4) was 1 (25.0) n (%) and the “Vision blurred (all-grade AE)” value (120 mg, n = 4) was 1 (25.0) n (%). The “Vomiting (all-grade AE)” value (120 mg, n = 4) was 2 (50.0) n (%), the “Patients in whom AZD1208 was discontinued as a result of SAEs and AEs” value (shortened to “Patients … of SAEs and AEs”) (240 mg (bacteremia, peristomal ulcer)) was 1 n and the “Abdominal pain (all-grade AE)” value (240 mg, n = 6) was 0 n (%). For the same molecule, the “Asthenia (all-grade AE)” value (240 mg, n = 6) was 0 n (%), the “Chills (all-grade AE)” value (240 mg, n = 6) was 1 (16.7) n (%) and the “Cough (all-grade AE)” value (240 mg, n = 6) was 1 (16.7) n (%). The “DLT detail, action taken” value (240 mg, n = 6) was “Peristomal ulcer, drug permanently discontinued”, the “Decreased appetite (all-grade AE)” value (240 mg, n = 6) was 1 (16.7) n (%) and the “Dehydration (all-grade AE)” value (240 mg, n = 6) was 0 n (%). The “Diarrhoea (all-grade AE)” value (240 mg, n = 6) was 1 (16.7) n (%), the “Dyspnoea (all-grade AE)” value (240 mg, n = 6) was 1 (16.7) n (%) and the “Fatigue (all-grade AE)” value (240 mg, n = 6) was 1 (16.7) n (%). The “Febrile neutropenia (all-grade AE)” value (240 mg, n = 6) was 2 (33.3) n (%), the “Headache (all-grade AE)” value (240 mg, n = 6) was 0 n (%) and the “Hyperglycaemia (all-grade AE)” value (240 mg, n = 6) was 0 n (%). For the same molecule, the “Hypocalcaemia (all-grade AE)” value (240 mg, n = 6) was 1 (16.7) n (%), the “Hypokalaemia (all-grade AE)” value (240 mg, n = 6) was 0 n (%) and the “Hypomagnesaemia (all-grade AE)” value (240 mg, n = 6) was 1 (16.7) n (%). For the same molecule, the “Hypophosphataemia (all-grade AE)” value (240 mg, n = 6) was 0 n (%), the “Hypotension (all-grade AE)” value (240 mg, n = 6) was 2 (33.3) n (%) and the “Maculopapular rash (all-grade AE)” value (240 mg, n = 6) was 1 (16.7) n (%). For the same molecule, the “Nausea (all-grade AE)” value (240 mg, n = 6) was 4 (66.7) n (%), the “Oedema peripheral (all-grade AE)” value (240 mg, n = 6) was 1 (16.7) n (%) and the “Patients with any AE (all-grade AE)” value (240 mg, n = 6) was 6 (100.0) n (%). The “Pneumonia (all-grade AE)” value (240 mg, n = 6) was 3 (50.0) n (%), the “Pyrexia (all-grade AE)” value (240 mg, n = 6) was 0 n (%) and the “Rash (all-grade AE)” value (240 mg, n = 6) was 0 n (%). The “Renal failure acute (all-grade AE)” value (240 mg, n = 6) was 1 (16.7) n (%), the “Stomatitis (all-grade AE)” value (240 mg, n = 6) was 1 (16.7) n (%) and the “Vision blurred (all-grade AE)” value (240 mg, n = 6) was 0 n (%). For the same molecule, the “Vomiting (all-grade AE)” value (240 mg, n = 6) was 3 (50.0) n (%), the “Patients … of SAEs and AEs” value (480 mg (vomiting, gingival pain)) was 2 n and the “Abdominal pain (all-grade AE)” value (480 mg, n = 6) was 1 (16.7) n (%). For the same molecule, the “Asthenia (all-grade AE)” value (480 mg, n = 6) was 1 (16.7) n (%), the “Chills (all-grade AE)” value (480 mg, n = 6) was 0 n (%) and the “Cough (all-grade AE)” value (480 mg, n = 6) was 1 (16.7) n (%). The “DLT detail, action taken” value (480 mg, n = 6) was “Fatigue, drug interrupted”, the “Decreased appetite (all-grade AE)” value (480 mg, n = 6) was 0 n (%) and the “Dehydration (all-grade AE)” value (480 mg, n = 6) was 0 n (%). The “Diarrhoea (all-grade AE)” value (480 mg, n = 6) was 3 (50.0) n (%), the “Dyspnoea (all-grade AE)” value (480 mg, n = 6) was 2 (33.3) n (%) and the “Fatigue (all-grade AE)” value (480 mg, n = 6) was 4 (66.7) n (%). The “Febrile neutropenia (all-grade AE)” value (480 mg, n = 6) was 0 n (%), the “Headache (all-grade AE)” value (480 mg, n = 6) was 3 (50.0) n (%) and the “Hyperglycaemia (all-grade AE)” value (480 mg, n = 6) was 2 (33.3) n (%). The “Hypocalcaemia (all-grade AE)” value (480 mg, n = 6) was 1 (16.7) n (%), the “Hypokalaemia (all-grade AE)” value (480 mg, n = 6) was 3 (50.0) n (%) and the “Hypomagnesaemia (all-grade AE)” value (480 mg, n = 6) was 2 (33.3) n (%). For the same molecule, the “Hypophosphataemia (all-grade AE)” value (480 mg, n = 6) was 2 (33.3) n (%), the “Hypotension (all-grade AE)” value (480 mg, n = 6) was 2 (33.3) n (%) and the “Maculopapular rash (all-grade AE)” value (480 mg, n = 6) was 0 n (%). The “Nausea (all-grade AE)” value (480 mg, n = 6) was 1 (16.7) n (%), the “Oedema peripheral (all-grade AE)” value (480 mg, n = 6) was 3 (50.0) n (%) and the “Patients with any AE (all-grade AE)” value (480 mg, n = 6) was 6 (100.0) n (%). The “Pneumonia (all-grade AE)” value (480 mg, n = 6) was 2 (33.3) n (%), the “Pyrexia (all-grade AE)” value (480 mg, n = 6) was 1 (16.7) n (%) and the “Rash (all-grade AE)” value (480 mg, n = 6) was 1 (16.7) n (%). For the same molecule, the “Renal failure acute (all-grade AE)” value (480 mg, n = 6) was 2 (33.3) n (%), the “Stomatitis (all-grade AE)” value (480 mg, n = 6) was 3 (50.0) n (%) and the “Vision blurred (all-grade AE)” value (480 mg, n = 6) was 3 (50.0) n (%). The “Vomiting (all-grade AE)” value (480 mg, n = 6) was 2 (33.3) n (%), the “Patients … of SAEs and AEs” value (700 mg (lung infection, GBS, Escherichia spp. sepsis)) was 3 n and the “Abdominal pain (all-grade AE)” value (700 mg, n = 7) was 3 (42.9) n (%). The “Asthenia (all-grade AE)” value (700 mg, n = 7) was 1 (14.3) n (%), the “Chills (all-grade AE)” value (700 mg, n = 7) was 1 (14.3) n (%) and the “Cough (all-grade AE)” value (700 mg, n = 7) was 4 (57.1) n (%). For the same molecule, the “DLT detail, action taken” value (700 mg, n = 7) was “GBS, drug permanently discontinued”, the “Decreased appetite (all-grade AE)” value (700 mg, n = 7) was 2 (28.6) n (%) and the “Dehydration (all-grade AE)” value (700 mg, n = 7) was 0 n (%). The “Diarrhoea (all-grade AE)” value (700 mg, n = 7) was 5 (71.4) n (%), the “Dyspnoea (all-grade AE)” value (700 mg, n = 7) was 2 (28.6) n (%) and the “Fatigue (all-grade AE)” value (700 mg, n = 7) was 2 (28.6) n (%). For the same molecule, the “Febrile neutropenia (all-grade AE)” value (700 mg, n = 7) was 1 (14.3) n (%) and the “Headache (all-grade AE)” value (700 mg, n = 7) was 1 (14.3) n (%).
